Assay results from patent US9556156B2, “Compounds, their synthesis and their uses” (priority 2012, dated 2017).
Like-named read-outs stand apart in the source and are kept apart here.

System: Sprague Dawley (SD) rat
Assay type: in vivo
Description: The general anesthetic activity of Propofol novel drug compound 1004 was evaluated in rats. All animal experiments were performed as per CPCSEA guidelines. The studies were carried out in Sprague Dawley (SD) rat in the weight range […] by intravenous tail vein dosing over a period of 10 seconds. The formulations of the compound 1004 for IV dosing in rats were prepared in pre-mix PEG400 and saline. Formulations of 1004 equivalent to 5 mpk (14 mpk of compd. 1004) and 7.5 mpk (equivalent to 21 mpk of compound 1004) of parent drug Propofol were prepared in 15% PEG400 and 85% normal saline. The monitoring of distinguishable levels of sedation was started during the dosing period and continued till animals regained consciousness. The onset, duration of sleep and recovery time was recorded.

| Structure (SMILES) | Recovery (SD rat, IV tail vein, Propofol Eq. 7.5 mpk, vehicle 15% PEG400, 85% NS) | General Anesthesia (GA) (onset of GA, SD rat, IV tail vein over 10 seconds, Propofol Eq. 7.5 mpk, vehicle 15% PEG400, 85% NS) | General Anesthesia (GA) (rat, in vivo) | Recovery (rat, in vivo) |
| --- | --- | --- | --- | --- |
| CNC(=O)c1ccc[n+](COC(=O)Oc2c(C(C)C)cccc2C(C)C)c1.[I-] [Compound 1004, 1-(((2,6-diisopropylphenoxy)carbonyloxy)methyl)-3-(methylcarbamoyl)pyridinium iodide] | Complete | After 1 min |  |  |
| CC(C)c1cccc(C(C)C)c1O [Propofol, 2,6-diisopropylphenol] |  |  | No GA | Complete |
